“Also recorded” adds a separate entry of the source. Counter-ions that a name gives are not always drawn. Blank lines part the entries; values can stand above or below the molecule they belong to.
How the values were obtained:
Type in all cases: physicochemical
[1] = Dynamic vapor sorption (DVS) with post-DVS XRPD; conditions: for DVS weight loss from 95 to 5% RH: desorption 95 to 5% RH; for post-DVS XRPD result: material recovered from the DVS experiment; for DVS weight gain from 5 to 95% RH: sorption 5 to 95% RH
Description: Dynamic vapor sorption (DVS) data were collected on a VTI SGA-100 Vapor Sorption Analyzer. NaCl and PVP were used as calibration standards. Samples were not dried prior to analysis. Adsorption and desorption data were collected over a range from 5 to 95% RH at 10% RH increments under a nitrogen purge. The equilibrium criterion used for analysis was less than 0.0100% weight change in 5 minutes with a maximum equilibration time of 3 hours. Data were not corrected for the initial moisture content of the samples.

[2] = Chemical and physical stability evaluation of Free Base Form I (UPLC, XRPD)
Description: Three conditions were used; open to 25° C./60% RH, open to 40° C./75% RH, and closed to 60° C. Physical stability was evaluated by XRPD. Chemical stability was determined through UPLC and ^1H NMR, when applicable. Materials were tested after 1, 7, and 14 days of exposure.

[3] = Estimated transition temperature and relative thermodynamic stability of free base forms
Source text: Phase transitions of solids can be thermodynamically reversible or irreversible. Crystalline forms which transform reversibly at a specific transition temperature (T) are called enantiotropic polymorphs. If the crystalline forms are not interconvertable under these conditions, the system is monotropic (one thermodynamically stable form). Several rules have been developed to predict the relative thermodynamic stability of polymorphs and whether the relationship between the polymorphs is enantiotropic or monotropic. The heat of fusion rule is applied within this study. The heat of fusion rule states that if the higher melting form has the lower heat of fusion then the two forms are enantiotropic, otherwise they are monotropic.
The estimated transition temperature between two enantiotropically related forms can be calculated from their melt onsets and heats of fusion based on the equation shown below.

[4] = Physical stability evaluation of Free Base Form II and Material N (modulated DSC / temperature and humidity exposure, then XRPD); conditions: for change in physical form by XRPD: 40° C./75% RH, 80° C./80% RH for 9 days; for change in physical form by XRPD after modulated DSC: underlying heating rate 0.02° C. min^−1
Description: DSC was modulated at low underlying heating rate, followed by X-ray powder diffraction. A low underlying heating rate was used of 0.02° C. min^−1. The temperature was 80° C. for form N and 90° C. for form II. Exposure was essentially isothermal, covering a temperature range with sensitivity to detect changes in physical form. The resultant materials were examined by X-ray powder diffraction.
Forms II and N were exposed to 40° C./75% relative humidity (RH), 80° C., 80° C./80% RH for 9 days followed by X-ray powder diffraction.

[5] = Ambient storage of Form II, reanalysis by XRPD; conditions: after 7 days
Source text: The form is known to be thermodynamically metastable, relative to Material N, at this condition; however, the kinetics of polymorph conversion may be slow at ambient conditions in the solid state.

[6] = Physical stability of the HCl salt exposed to water (disproportionation, XRPD)
Description: Solutions were prepared by adding enough solids to a given solvent so that excess solids were present. The mixture was then agitated in a sealed vial at either ambient or an elevated temperature. After a given amount of time, the solids were isolated for analysis.
(§1) The HCl salt (termed “HCl Form I”) was subjected to various stress conditions and monitored by XRPD to evaluate physical stability. […] Disproportionation is further evident with wet milling or in direct contact with water (e.g. slurry) as shown by the presence of Free Base Forms I or II, identified by XRPD. […] (after 12 hrs), 40° C. (after 6 hrs), and at 40° C./48 mmHg (after 6 hrs). • Free Base Material C becomes evident at more extreme conditions involving elevated temperatures. Heating HCl Form I up to 125° C. induces the loss of acidic volatiles (judged visually by use of pH paper held above sample). […] Exposing the HCl salt to 60° C. under vacuum for 6 days provides the same result. The nature of Material C is not established

[7] = Physical stability of the HCl salt with grinding (XRPD); conditions: 30 min
Description: Selected material was milled utilizing a Reitch Mill. The material was loaded into an agate lined milling vessel followed by the addition of an agate ball. The vessel was then placed on to the mill and milled for approximately 30 minutes at frequency of […]. The milling was stopped approximately every 10 minutes and material scraped from the wall before further milling.

[8] = Physical stability of the HCl salt exposed to elevated temperature and/or vacuum (XRPD)
Description: Selected materials were stressed at elevated related humidity and/or temperature. Relative humidity jars (saturated salt solutions used to generate desired relative humidity) were utilized to store selected samples. The following relative humidity jars were utilized during evaluation: 75% RH (NaCl) and 60% (NaBr), to investigate the effects of humidity. Temperatures utilized were ambient, 30, 40, 60, and 100-125° C.
Selected materials were stressed under reduced pressure for a set time period. Initial stressing was conducted with the in-house vacuum system with absolute pressure readings <500 mTorr, typically 30 to 50 mTorr (0.030 to 0.05 mm Hg). Additional vacuum stressing was conducted at 48 mmHg utilizing a portable lab vacuum and bleed to simulate conditions similar to those expected during process.
as §1

[9] = Extended solvent mediated maturation of form II / form N mixtures in hexane; conditions: temperatures of 20° C. and lower
Description: Extended solvent mediated maturation studies were conducted with 1:1 w/w mixtures of polymorphic form II and form N. Hexane provided a good medium for solvent assessments. The temperatures used include −20° C., −10° C., 0° C., 10° C., 20° C., 30° C., 40° C. and 50° C. […] Solids derived from maturation at −20° C., −10° C., 0° C., 10° C., 20° C. were analyzed by X-ray powder diffraction.

[10] = Disproportionation of the sulfate salt when precipitated with water; conditions: from solvents such as dimethyl sulfoxide and methanol when precipitated with water
Source text: This invention arises in part out the discovery that an HCl salt of Compound 1 disproportionates or loses HCl, and a disproportionation of the HCl salt of Compound 1 in water generates the free base and disproportionation was facile upon exposure to elevated humidity, with wet milling, and in direct contact with water (e.g. slurry). The sulfate salt of Compound 1 also disproportionates from certain solvents such as dimethyl sulfoxide and methanol when precipitated with water. The volatilization of HCl was evident within hours of exposure to drying conditions. For example, partial conversion to the free base was observed within 12 hours at 30° C. Accordingly, the free base of Compound 1 provides a stabler chemical entity compared to the corresponding HCl or sulfate and such other salt.

Structure (SMILES): CC(C)n1nccc1-c1ncccc1COc1cccc(O)c1C=O [Form I, 2-hydroxy-6-((2-(1-isopropyl-1H-pyrazol-5-yl)pyridin-3-yl)methoxy)benzaldehyde]
hygroscopicity by DVS isotherm [1]: not hygroscopic
weight gain and loss through sorption/desorption ([1]; DVS): 0.2%
DVS weight loss from 95 to 5% RH [1]: 0.22% loss from 95 to 5% RH
DVS weight loss upon equilibration at 5% RH ([1]; equilibration at 5% RH): 0.02% loss upon equilibration at 5% RH
post-DVS XRPD result [1]: predominately Free Base Form I with a few additional peaks; also recorded: Free Base Form I + other Free Base Material
DVS weight gain from 5 to 95% RH [1]: 0.22% gain from 5 to 95% RH
chemical stability: level of impurities by UPLC ([2]; open 25° C./60% RH, open 40° C./75% RH, closed 60° C., after 14 days): did not rise significantly
physical stability by XRPD ([2]; open to 25° C./60% RH, 1, 7 and 14 days): remained unchanged
physical stability by XRPD ([2]; open to 40° C./75% RH and closed to 60° C., after 7 days): Free Base Form II was observed

Structure (SMILES): CC(C)n1nccc1-c1ncccc1COc1cccc(O)c1C=O [Form II, 2-hydroxy-6-((2-(1-isopropyl-1H-pyrazol-5-yl)pyridin-3-yl)methoxy)benzaldehyde]
Relative Stability ([3]; Above T^N-II): (II > I)
Relative Stability ([3]; Below 6° C.): N > II
Relative Stability ([3]; Between 6° C. and T^N-II): N > II > I
change in physical form by XRPD ([4]; 80° C.): No changes in physical form
change in physical form by XRPD after modulated DSC ([4]; 90° C.): No changes in physical form
XRPD after storage [5]: remained unchanged; also recorded: Free Base Form II

Structure (SMILES): CC(C)n1nccc1-c1ncccc1COc1cccc(O)c1C=O [HCl salt of Compound 1, 2-hydroxy-6-((2-(1-isopropyl-1H-pyrazol-5-yl)pyridin-3-yl)methoxy)benzaldehyde]
DVS weight loss from 95 to 5% RH [1]: 0.09% loss from 95 to 5% RH
DVS weight gain upon equilibration at 5% RH ([1]; equilibration at 5% RH): 0.03% gain upon equilibration at 5% RH
post-DVS XRPD result [1]: HCl I + Free Base Form I
post-DVS XRPD result ([1]; listed as HCl salt): disproportionation occurred
DVS weight gain from 5 to 95% RH [1]: 0.10% gain from 5 to 95% RH
disproportionation on contact with water ([6]; contact with water): Immediate disproportionation occurs; also recorded: disproportionate immediately
XRPD Result ([6]; vacuum dried, about 1 day): FB I
XRPD Result ([6]; water slurry, about 5 min): Free base (FB) I
XRPD Result ([6]; water slurry, about 5 min, listed as HCl salt): Free Base Form I
XRPD Result ([6]; water slurry, about 6 days): FB I + FB II
XRPD Result ([7]; dry): HCl I
XRPD Result ([7]; wet): HCl I + FB I
time after which conversion to Free Base Form I was observed by XRPD ([8]; 30° C.): 12 h
XRPD Result ([8]; 30° C., 6 hrs): HCl I
XRPD Result ([8]; 30° C., 12 hrs): HCl I + FB I
XRPD Result ([8]; 30° C., 24 hrs): HCl I + FB I
time within which partial conversion to the free base was observed ([8]; 30° C., drying conditions): ≤ 12 h
time after which conversion to Free Base Form I was observed by XRPD ([8]; 40° C.): 6 h
XRPD Result ([8]; 40° C. vacuum, 6 hrs): HCl I + FB I
XRPD Result ([8]; 40° C. vacuum, 12 hrs): HCl I + FB I
XRPD Result ([8]; 40° C. vacuum, 24 hrs): HCl I + FB I
XRPD Result ([8]; 40° C., 6 hrs): HCl I + FB I
XRPD Result ([8]; 40° C., 12 hrs): HCl I + FB I
XRPD Result ([8]; 40° C., 24 hrs): HCl I + FB I
time after which conversion to Free Base Form I was observed by XRPD ([8]; 40° C./48 mmHg): 6 h
XRPD Result ([8]; 60° C. vacuum, 6 days): HCl I + FB I +
XRPD Result ([8]; 60° C. vacuum, 6 days, listed as HCl salt): same result
XRPD Result ([8]; 60° C., 6 days): HCl I + FB I
XRPD Result ([8]; 100 to 125° C., 20 min): HCl I + FB I +
XRPD Result ([8]; 100 to 125° C., 20 min, listed as HCl Form I): mixture of HCl Form I, Free Base Form I, and Free Base Material C
XRPD Result ([8]; RT vacuum, 6 days): HCl I + FB I

Second part, led by results:

Relative Stability ([3]; Below 6° C.): N > II
Relative Stability ([3]; Between 6° C. and T^N-II): N > II > I
change in physical form by XRPD ([4]; 80° C.): No changes in physical form
change in physical form by XRPD after modulated DSC ([4]; 80° C.): No changes in physical form
Structure (SMILES): CC(C)n1nccc1-c1ncccc1COc1cccc(O)c1C=O [Material N, 2-hydroxy-6-((2-(1-isopropyl-1H-pyrazol-5-yl)pyridin-3-yl)methoxy)benzaldehyde]
relative thermodynamic stability [9]: thermodynamically more stable than form II

disproportionation of the salt [10]: disproportionates
Structure (SMILES): CC(C)n1nccc1-c1ncccc1COc1cccc(O)c1C=O [sulfate salt of Compound 1, 2-hydroxy-6-((2-(1-isopropyl-1H-pyrazol-5-yl)pyridin-3-yl)methoxy)benzaldehyde]
